From the NIST ThermoML archive (doi:10.1016/j.fluid.2014.09.014)

Experiment: refractive index (other wavelength) (dimensionless); xn = mol fraction of the nth substance listed
Conditions: 101 kPa, Liquid, Standard Abbe refractometry

CC(C)OC(C)C [diisopropyl ether] + CO
refractive index
Conditions	Wavelength=40.47 nm	Wavelength=435.8 nm	Wavelength=486.1 nm	Wavelength=546.1 nm	Wavelength=587.6 nm	Wavelength=589.3 nm	Wavelength=632.8 nm	Wavelength=644 nm	Wavelength=706.5 nm
313.15 K, x2 = 0	–	–	–	–	–	1.35694	1.35572	1.35543	1.35401
313.15 K, x2 = 0.0423	–	–	–	–	–	1.35688	1.35563	1.35534	1.35395
313.15 K, x2 = 0.0424	–	–	–	–	–	1.3569	1.35568	1.3554	1.35398
313.15 K, x2 = 0.082	–	–	–	–	–	1.35685	1.35562	1.35532	1.35392
313.15 K, x2 = 0.0822	–	–	–	–	–	1.35704	1.35581	1.35552	1.35411
313.15 K, x2 = 0.1171	–	–	–	–	–	1.3569	1.35567	1.35538	1.35398
313.15 K, x2 = 0.1271	–	–	–	–	–	1.35691	1.35566	1.35538	1.35399
313.15 K, x2 = 0.1827	–	–	–	–	–	1.35671	1.35548	1.35518	1.35378
313.15 K, x2 = 0.2162	–	–	–	–	–	1.35656	1.35535	1.35505	1.35364
313.15 K, x2 = 0.251	–	–	–	–	–	1.35622	1.35489	1.3546	1.35322
313.15 K, x2 = 0.3298	–	–	–	–	–	1.35621	1.35494	1.35463	1.35329
313.15 K, x2 = 0.3577	–	–	–	–	–	1.3559	1.35417	1.35388	1.35251
313.15 K, x2 = 0.4497	–	–	–	–	–	1.35414	1.35292	1.35264	1.35124
313.15 K, x2 = 0.4525	–	–	–	–	–	1.35454	1.35331	1.35302	1.35165
313.15 K, x2 = 0.522	–	–	–	–	–	1.35241	1.3512	1.35091	1.34954
313.15 K, x2 = 0.5543	–	–	–	–	1.3516	1.35155	1.35036	1.35008	–
313.15 K, x2 = 0.609	–	–	–	–	1.34934	1.34929	1.3481	1.34783	1.34648
313.15 K, x2 = 0.6529	–	–	–	–	1.34786	1.34781	1.34667	1.34638	1.34501
313.15 K, x2 = 0.7504	–	–	–	–	1.34401	1.34396	1.34279	1.34252	1.34121
313.15 K, x2 = 0.804	–	–	–	–	1.33965	1.3396	1.33846	1.33821	1.33693
313.15 K, x2 = 0.807	–	–	–	–	1.33975	1.3409	1.33854	1.33829	1.33702
313.15 K, x2 = 0.8727	–	–	–	–	1.33626	1.33609	1.33509	1.33482	1.33354
313.15 K, x2 = 0.9233	–	–	–	–	1.3284	1.32835	1.32726	1.32702	1.32582
313.15 K, x2 = 0.9253	–	–	–	–	1.33006	1.33001	1.32891	1.32867	1.32745
313.15 K, x2 = 0.9527	–	–	–	–	1.32712	1.32708	1.32598	1.32574	1.32454
313.15 K, x2 = 0.9773	–	–	–	–	1.32383	1.32378	1.32372	1.32248	1.32131
313.15 K, x2 = 0.989	–	–	–	–	1.32263	1.32259	1.32154	1.3213	1.32103
313.15 K, x2 = 0.9964	–	–	–	–	1.32167	1.32163	1.32058	1.32034	1.31919
318.15 K, x2 = 0	1.36447	1.36157	1.35832	1.35556	1.35416	1.35411	1.3529	1.35259	1.3512
318.15 K, x2 = 0.0423	1.36444	1.36155	1.35829	1.35556	1.35414	1.35409	1.35285	1.35256	1.35117
318.15 K, x2 = 0.0424	1.3644	1.36152	1.35828	1.35551	1.3541	1.35405	1.35283	1.35253	1.35116
318.15 K, x2 = 0.082	1.36442	1.36153	1.35827	1.35551	1.35411	1.35406	1.35285	1.35255	1.35115
318.15 K, x2 = 0.0822	1.36413	1.36167	1.35838	1.35565	1.35423	1.35418	1.35295	1.35267	1.35128
318.15 K, x2 = 0.1171	1.36444	1.36159	1.35824	1.35556	1.35417	1.35412	1.3529	1.35259	1.3512
318.15 K, x2 = 0.1271	1.36445	1.36158	1.35832	1.35557	1.35415	1.3541	1.35289	1.3526	1.35122
318.15 K, x2 = 0.1827	1.36427	1.3614	1.35814	1.35541	1.354	1.35395	1.35273	1.35243	1.35105
318.15 K, x2 = 0.2162	1.36415	1.36132	1.35804	1.35526	1.35387	1.35382	1.35262	1.35233	–
318.15 K, x2 = 0.251	1.3636	1.36074	1.35753	1.35479	1.35338	1.35333	1.35213	1.35185	–
318.15 K, x2 = 0.3298	1.36408	1.36122	1.358	1.35528	1.35387	1.35292	1.35259	1.35229	1.35092
318.15 K, x2 = 0.3577	1.36296	1.36012	1.35689	1.35419	1.35274	1.35269	1.35147	1.3512	1.34984
318.15 K, x2 = 0.4497	1.36174	1.35893	1.35572	1.35303	1.35162	1.35157	1.35038	1.3501	1.34871
318.15 K, x2 = 0.4525	1.36248	1.35967	1.35631	1.3537	1.35228	1.35223	1.35098	1.35071	1.34936
318.15 K, x2 = 0.522	1.35999	1.3572	1.35398	1.35136	1.34995	1.34989	1.34869	1.34842	1.34709
318.15 K, x2 = 0.5543	1.35901	1.35624	1.35305	1.35042	1.34905	1.349	1.34779	1.34751	1.34616
318.15 K, x2 = 0.609	1.35666	1.35398	1.35085	1.34818	1.34684	1.3468	1.34566	1.34538	1.34405
318.15 K, x2 = 0.6529	1.35514	1.35244	1.34936	1.34672	1.34534	1.34529	1.34413	1.34386	1.34255
318.15 K, x2 = 0.7504	1.35095	1.34832	1.34529	1.34271	1.34138	1.34133	1.34018	1.3399	1.33858
318.15 K, x2 = 0.804	1.34473	1.34218	1.33919	1.33675	1.33541	1.33536	1.33421	1.33396	1.33271
318.15 K, x2 = 0.807	1.3465	1.34393	1.34094	1.33842	1.33709	1.33777	1.33591	1.33566	1.33438
318.15 K, x2 = 0.8727	1.34338	1.34082	1.3379	1.33543	1.33411	1.33406	1.33294	1.33269	1.33146
318.15 K, x2 = 0.9233	1.33515	1.33279	1.32983	1.32743	1.32614	1.3261	1.32501	1.32477	1.3236
318.15 K, x2 = 0.9253	1.33682	1.33442	1.33151	1.32907	1.32777	1.32772	1.32665	1.32641	1.32521
318.15 K, x2 = 0.9527	1.33369	1.33136	1.32842	1.32601	1.32474	1.32469	1.32362	1.32339	1.32222
318.15 K, x2 = 0.9773	1.33062	1.32834	1.32541	1.32301	1.32177	1.32173	1.32066	1.32042	1.3193
318.15 K, x2 = 0.989	1.32932	1.32708	1.3242	1.32177	1.32052	1.32048	1.31944	1.31921	1.31807
318.15 K, x2 = 0.9964	1.32844	1.32617	1.32328	1.3209	1.31967	1.31963	1.31859	1.31836	1.31724
